Consider twelve compounds from ChEMBL document CHEMBL1135186, “Novel diphenylalkyl piperazine derivatives with dual calcium antagonistic and antioxidative activities” (Bioorg Med Chem Lett, 2002).

For assay [1], the species on record is Canis familiaris. Put plainly: Concentration of the test compound required to inhibit the auto oxidative lipid peroxidations in canine brain homogenates by 50% was determined. It is filed as functional. The following applies: Canis lupus familiaris.
Assay [2] is filed under the species Canis familiaris. As to the kind of experiment: Inhibitory activity against KCl induced contractile response in isolated canine basilar artery was determined expressed as vasodilation effect. It is filed as functional, Canis lupus familiaris.
For assay [3], the species on record is Canis familiaris. As to the kind of experiment: Inhibitory activity against KCl induced contractile response in isolated canine coronary artery was determined expressed as vasodilation effect. It is filed as functional, Canis lupus familiaris.
Assay [4] is filed under the species Canis familiaris. As to the kind of experiment: Inhibitory activity against KCl induced contractile response in isolated canine mesenteric artery was determined expressed as vasodilation effect. It is filed as functional, Canis lupus familiaris.
Assay [5] is filed under the species Canis familiaris. Put plainly: Inhibitory activity against KCl induced contractile response in isolated canine renal artery was determined expressed as vasodilation effect. It is filed as functional, Canis lupus familiaris.
Assay [6] is filed under the species Rattus norvegicus. Put plainly: PD2 value was calculated as -log value of the concentration of the test compound to inhibit 60 mM KCl-induced contractions to 50% expressed as calcium antagonistic activity. It is filed as functional.

What is called IC50 is the concentration at which inhibition is half-maximal. Read a low IC50 as greater potency. In assay [1], `OC(CSc1ccccc1)CN1CCN(CCCC(c2ccc(F)cc2)c2ccc(F)cc2)CC1` (centres undefined) yielded a concentration for half-maximal inhibition (IC50) of 15 µM. Further, the PD2 in assay [2] is 7; in assay [3] it was 6.38; in assay [4], 5.8; in assay [5], 5.73; in assay [6], 6.79.
On to `CC(=O)N(CC(O)CN1CCN(CCCC(c2ccc(F)cc2)c2ccc(F)cc2)CC1)c1ccccc1` (centres undefined), for which 390 µM corresponded to half-maximal inhibition in assay [1] (IC50). Besides, the PD2 in assay [6] is 5.98.
Take `COC(CNc1ccccc1)CN1CCN(CCCC(c2ccc(F)cc2)c2ccc(F)cc2)CC1` (centres undefined): the IC50 in assay [1] stood at 15 µM.
Consider `OC(CNc1ccccc1)CN1CCN(CCCC(c2ccc(F)cc2)c2ccc(F)cc2)CC1` (centres undefined), for which, in assay [1], the IC50 is 6.5 µM. Besides, the PD2 in assay [2] is listed as 6.76; in assay [3] it was 6.32; in assay [4] it was 6.1; in assay [5], 6.27; in assay [6] it was 6.7.
In assay [1], `OC(CSCc1ccccc1)CN1CCN(CCCC(c2ccc(F)cc2)c2ccc(F)cc2)CC1` (centres undefined) came in with a half-maximal inhibitory concentration (IC50) of 28 µM. The PD2 in assay [6] is recorded as 6.93.
In the same order, the values of `CC(=O)OC(CSc1ccccc1)CN1CCN(CCCC(c2ccc(F)cc2)c2ccc(F)cc2)CC1` (centres undefined) are 20 µM and 6.55.
The like results for `CN(CC(O)CN1CCN(CCCC(c2ccc(F)cc2)c2ccc(F)cc2)CC1)c1ccccc1` (centres undefined) were, in that order, 19 µM and 5.83.
In the same order, the values of `CC(=O)OC(CNc1ccccc1)CN1CCN(CCCC(c2ccc(F)cc2)c2ccc(F)cc2)CC1` (centres undefined) are 13 µM and 6.38.
In assay [1], `OC(CNCc1ccccc1)CN1CCN(CCCC(c2ccc(F)cc2)c2ccc(F)cc2)CC1` (centres undefined) yielded a 50% inhibitory concentration (IC50) of 6.9 µM. Moreover, in assay [6], the PD2 was 5.85.
In the same order, the values of `COC(CSc1ccccc1)CN1CCN(CCCC(c2ccc(F)cc2)c2ccc(F)cc2)CC1` (centres undefined) are 20 µM and 6.69.
In the case of `Cc1c(C)c2c(c(C)c1O)CC[C@@](C)(CCC[C@H](C)CCC[C@H](C)CCCC(C)C)O2` [ALPHA-TOCOPHEROL], the IC50 in assay [1] is 1.5 µM.
For `Fc1ccc(C(c2ccc(F)cc2)N2CCN(C/C=C/c3ccccc3)CC2)cc1` [FLUNARIZINE], the PD2 in assay [6] is recorded as 5.98.
